# Assay results published in publication PMC5218480 (PLoS ONE, 2017).
# Test system: MV-4-11 cells
# Assay: Gene expression microarray analysis (Affymetrix PrimeView) and GSEA
# Type: cell-based, human
# Design: RFU PODN (11730768_x_at) / Fold change /veh PODN (11730768_x_at) / RFU LINC00158 (11744669_a_at) / Fold change /veh LINC00158 (11744669_a_at) / RFU DUSP10 (11751237_a_at) / Fold change /veh DUSP10 (11751237_a_at) / RFU ID3 (11757404_x_at) / Fold change /veh ID3 (11757404_x_at) / RFU PLEKHG5 (11737974_s_at) / Fold change /veh PLEKHG5 (11737974_s_at) / RFU LRRC4B (11730491_at) / Fold change /veh LRRC4B (11730491_at) / RFU GIMAP4 (11747438_a_at) / Fold change /veh GIMAP4 (11747438_a_at) / RFU KRT8 (11758183_x_at) / Fold change /veh KRT8 (11758183_x_at) / RFU CNN1 (11734310_a_at) / Fold change /veh CNN1 (11734310_a_at) / RFU VPS37D (11726825_at) / Fold change /veh VPS37D (11726825_at) / RFU C10orf10 (11716522_x_at) / Fold change /veh C10orf10 (11716522_x_at) / RFU KIR2DL2 /// KIR2DL4 /// KIR2DL5A /// KIR2DL5B /// KIR2DS1 /// KIR2DS2 /// KIR2DS3 /// KIR2DS4 /// KIR3DL3 /// KIR3DL3 /// KIR3DS1 (11738374_at) / Fold change /veh KIR2DL2 /// KIR2DL4 /// KIR2DL5A /// KIR2DL5B /// KIR2DS1 /// KIR2DS2 /// KIR2DS3 /// KIR2DS4 /// KIR3DL3 /// KIR3DL3 /// KIR3DS1 (11738374_at) / RFU C1QL1 (11718748_at) / Fold change /veh C1QL1 (11718748_at) / RFU TMPRSS4 (11747572_a_at) / Fold change /veh TMPRSS4 (11747572_a_at) / RFU HAMP (11756126_x_at) / Fold change /veh HAMP (11756126_x_at) / RFU RNFT2 (11725882_a_at) / Fold change /veh RNFT2 (11725882_a_at) / RFU NR4A2 (11747474_a_at) / Fold change /veh NR4A2 (11747474_a_at) / RFU ABCC12 (11746883_a_at) / Fold change /veh ABCC12 (11746883_a_at) / RFU TMEM136 (11760407_x_at) / Fold change /veh TMEM136 (11760407_x_at) / RFU CLDN22 /// WWC2 (11732394_at) / Fold change /veh CLDN22 /// WWC2 (11732394_at) / RFU HLA-DPB1 (11760878_x_at) / Fold change /veh HLA-DPB1 (11760878_x_at) / RFU SPINT1 (11716480_a_at) / Fold change /veh SPINT1 (11716480_a_at) / RFU GAP43 (11754022_s_at) / Fold change /veh GAP43 (11754022_s_at) / RFU A4GNT (11735810_at) / Fold change /veh A4GNT (11735810_at) / RFU PRB3 (11715151_x_at) / Fold change /veh PRB3 (11715151_x_at) / RFU TUBB4B (11761932_at) / Fold change /veh TUBB4B (11761932_at) / RFU CAPN14 (11732068_a_at) / Fold change /veh CAPN14 (11732068_a_at) / RFU TMCC2 (11721928_a_at) / Fold change /veh TMCC2 (11721928_a_at) / RFU IRGQ (11745062_a_at) / Fold change /veh IRGQ (11745062_a_at) / RFU FAM174B (11720279_a_at) / Fold change /veh FAM174B (11720279_a_at) / RFU TMPRSS4 (11748680_a_at) / Fold change /veh TMPRSS4 (11748680_a_at) / RFU FAM212B (11763350_a_at) / Fold change /veh FAM212B (11763350_a_at) / RFU PLEKHG5 (11743358_a_at) / Fold change /veh PLEKHG5 (11743358_a_at) / RFU ZSCAN30 (11745921_a_at) / Fold change /veh ZSCAN30 (11745921_a_at) / RFU CMKLR1 (11741424_a_at) / Fold change /veh CMKLR1 (11741424_a_at) / RFU LOC101060620 /// MAPK8IP1 (11723275_at) / Fold change /veh LOC101060620 /// MAPK8IP1 (11723275_at) / RFU SPTSSB (11747773_x_at) / Fold change /veh SPTSSB (11747773_x_at) / RFU PRSS12 (11739890_at) / Fold change /veh PRSS12 (11739890_at) / RFU BIN1 (11741810_x_at) / Fold change /veh BIN1 (11741810_x_at) / RFU WNT11 (11732464_a_at) / Fold change /veh WNT11 (11732464_a_at) / RFU C10orf10 (11716521_a_at) / Fold change /veh C10orf10 (11716521_a_at) / RFU C5orf56 (11738089_at) / Fold change /veh C5orf56 (11738089_at) / RFU CYB561 (11721691_x_at) / Fold change /veh CYB561 (11721691_x_at) / RFU ANKRD19P (11752326_a_at) / Fold change /veh ANKRD19P (11752326_a_at) / RFU OR2T12 /// OR2T33 /// OR2T8 (11738714_s_at) / Fold change /veh OR2T12 /// OR2T33 /// OR2T8 (11738714_s_at) / RFU VCAN (11748164_a_at) / Fold change /veh VCAN (11748164_a_at) / RFU JSRP1 (11732532_at) / Fold change /veh JSRP1 (11732532_at) / RFU KRTAP10-11 (11738290_x_at) / Fold change /veh KRTAP10-11 (11738290_x_at) / RFU MYO3A (11730013_a_at) / Fold change /veh MYO3A (11730013_a_at) / RFU EBF3 (11725865_a_at) / Fold change /veh EBF3 (11725865_a_at) / RFU CAMK2N1 (11719241_x_at) / Fold change /veh CAMK2N1 (11719241_x_at) / RFU C5orf56 (11738088_a_at) / Fold change /veh C5orf56 (11738088_a_at) / RFU OLFML3 (11715873_a_at) / Fold change /veh OLFML3 (11715873_a_at) / RFU LOC100653217 /// NTM (11731650_a_at) / Fold change /veh LOC100653217 /// NTM (11731650_a_at) / RFU MAPK11 (11762145_a_at) / Fold change /veh MAPK11 (11762145_a_at) / RFU FIZ1 (11724087_x_at) / Fold change /veh FIZ1 (11724087_x_at) / RFU OASL (11726364_x_at) / Fold change /veh OASL (11726364_x_at) / RFU SOX15 (11748057_x_at) / Fold change /veh SOX15 (11748057_x_at) / RFU CD79A (11719716_a_at) / Fold change /veh CD79A (11719716_a_at) / RFU HIST1H1D (11736915_at) / Fold change /veh HIST1H1D (11736915_at) / RFU CASKIN2 (11723855_a_at) / Fold change /veh CASKIN2 (11723855_a_at) / RFU LOC730098 (11760151_x_at) / Fold change /veh LOC730098 (11760151_x_at) / RFU OR4N2 (11742367_at) / Fold change /veh OR4N2 (11742367_at) / RFU PRRT2 (11749266_a_at) / Fold change /veh PRRT2 (11749266_a_at) / RFU SNX32 (11753110_a_at) / Fold change /veh SNX32 (11753110_a_at) / RFU CDHR5 (11726645_a_at) / Fold change /veh CDHR5 (11726645_a_at) / RFU RCAN1 (11760418_a_at) / Fold change /veh RCAN1 (11760418_a_at) / RFU FAM167A (11723789_a_at) / Fold change /veh FAM167A (11723789_a_at) / RFU FAM26E (11764081_at) / Fold change /veh FAM26E (11764081_at) / RFU ISYNA1 (11749810_s_at) / Fold change /veh ISYNA1 (11749810_s_at) / RFU ACY1 (11761880_at) / Fold change /veh ACY1 (11761880_at) / RFU 11764098_at / Fold change /veh 11764098_at / RFU SAMD14 (11745864_x_at) / Fold change /veh SAMD14 (11745864_x_at) / RFU NPB (11741838_a_at) / Fold change /veh NPB (11741838_a_at) / RFU TMPRSS6 (11731388_a_at) / Fold change /veh TMPRSS6 (11731388_a_at) / RFU KRTAP10-2 (11738614_at) / Fold change /veh KRTAP10-2 (11738614_at) / RFU ARHGAP8 /// PRR5-ARHGAP8 (11727945_x_at) / Fold change /veh ARHGAP8 /// PRR5-ARHGAP8 (11727945_x_at) / RFU KRTAP5-7 /// NADSYN1 (11734609_at) / Fold change /veh KRTAP5-7 /// NADSYN1 (11734609_at) / RFU RASL12 (11751679_a_at) / Fold change /veh RASL12 (11751679_a_at) / RFU CDKN2B (11736163_a_at) / Fold change /veh CDKN2B (11736163_a_at) / RFU PRF1 (11729649_at) / Fold change /veh PRF1 (11729649_at) / RFU, ZNF638 /// ZNF638-IT1 / Fold change vs veh, ZNF638 /// ZNF638-IT1 / RFU, PANK3 / Fold change vs veh, PANK3 / RFU, SH3YL1 / Fold change vs veh, SH3YL1 / RFU, ZEB2 / Fold change vs veh, ZEB2 / RFU, NRIP1 / Fold change vs veh, NRIP1 / RFU, PTTG1IP / Fold change vs veh, PTTG1IP / RFU, CAPN2 / Fold change vs veh, CAPN2 / RFU, MED14 / Fold change vs veh, MED14 / RFU, SNORA58 / Fold change vs veh, SNORA58 / RFU, C1orf63 / Fold change vs veh, C1orf63 / RFU, LRRFIP1 / Fold change vs veh, LRRFIP1 / RFU, NDUFAF7 / Fold change vs veh, NDUFAF7 / RFU, SLC12A2 / Fold change vs veh, SLC12A2 / RFU, IBTK / Fold change vs veh, IBTK / RFU, ESF1 / Fold change vs veh, ESF1 / Fold change vs veh, TMEM50B / RFU, TAOK1 / Fold change vs veh, TAOK1 / RFU, ACBD3 / Fold change vs veh, ACBD3 / RFU, TMA16 / Fold change vs veh, TMA16 / RFU, RWDD3 / Fold change vs veh, RWDD3 / RFU, BCAT1 / Fold change vs veh, BCAT1 / RFU, EDEM3 / Fold change vs veh, EDEM3 / RFU, TMEM33 / Fold change vs veh, TMEM33 / RFU, WDR75 / Fold change vs veh, WDR75 / RFU, AHCTF1 / Fold change vs veh, AHCTF1 / RFU, TFRC / Fold change vs veh, TFRC / RFU, ZDHHC17 / Fold change vs veh, ZDHHC17 / RFU, NOM1 / Fold change vs veh, NOM1 / RFU, ARL8B / Fold change vs veh, ARL8B / RFU, ZBTB11 / Fold change vs veh, ZBTB11 / RFU, TAMM41 / Fold change vs veh, TAMM41 / RFU, KIAA1704 /// LOC100996395 / Fold change vs veh, KIAA1704 /// LOC100996395 / RFU, ING1 / Fold change vs veh, ING1 / RFU, TRMT61B / Fold change vs veh, TRMT61B / RFU, FUBP3 / Fold change vs veh, FUBP3 / RFU, TP53 / Fold change vs veh, TP53 / RFU, TNKS2 / Fold change vs veh, TNKS2 / RFU, ZFP14 / Fold change vs veh, ZFP14 / RFU, ACTR2 / Fold change vs veh, ACTR2 / RFU, PPP3R1 / Fold change vs veh, PPP3R1 / RFU, PIK3R1 / Fold change vs veh, PIK3R1 / RFU, HNRNPA1 / Fold change vs veh, HNRNPA1 / RFU, RNF170 / Fold change vs veh, RNF170 / RFU, ZNF28 / Fold change vs veh, ZNF28 / RFU, RNGTT / Fold change vs veh, RNGTT / RFU, OGT / Fold change vs veh, OGT / RFU, BRD1 / Fold change vs veh, BRD1 / RFU, MARS / Fold change vs veh, MARS / RFU, ZNF655 / Fold change vs veh, ZNF655 / RFU, FAHD1 / Fold change vs veh, FAHD1 / RFU, BDP1 / Fold change vs veh, BDP1 / RFU, LRRCC1 / Fold change vs veh, LRRCC1 / RFU, ARID1A / Fold change vs veh, ARID1A / RFU, ZNF146 / Fold change vs veh, ZNF146 / RFU, ZNF330 / Fold change vs veh, ZNF330 / RFU, GPN3 / Fold change vs veh, GPN3 / RFU, C9orf123 / Fold change vs veh, C9orf123 / RFU, N4BP2L2 / Fold change vs veh, N4BP2L2 / RFU, ARFIP1 / Fold change vs veh, ARFIP1 / RFU, FAM179B / Fold change vs veh, FAM179B / RFU, BCL10 / Fold change vs veh, BCL10 / RFU, UHRF1BP1L / Fold change vs veh, UHRF1BP1L / RFU, BET1 / Fold change vs veh, BET1 / RFU, CNOT2 / Fold change vs veh, CNOT2 / RFU, ZNF268 / Fold change vs veh, ZNF268 / Fold change vs veh, ZNF507 / RFU, DGCR2 / Fold change vs veh, DGCR2 / RFU, WDSUB1 / Fold change vs veh, WDSUB1 / Fold change vs veh, HSP90B1 /// MIR3652 / RFU, ADSS / Fold change vs veh, ADSS / RFU, GK / Fold change vs veh, GK / RFU, ZNF148 / Fold change vs veh, ZNF148 / RFU, TAF9 / Fold change vs veh, TAF9 / RFU, SLC1A5 / Fold change vs veh, SLC1A5 / RFU, SLMO2 / Fold change vs veh, SLMO2 / RFU, ABCC4 / Fold change vs veh, ABCC4 / RFU, LOC101060439 /// RAP1B / Fold change vs veh, LOC101060439 /// RAP1B / RFU, RFX7 / Fold change vs veh, RFX7 / RFU, GTPBP10 / Fold change vs veh, GTPBP10 / RFU, CNEP1R1 / Fold change vs veh, CNEP1R1 / RFU, BIVM-ERCC5 /// ERCC5 / Fold change vs veh, BIVM-ERCC5 /// ERCC5 / RFU, ILF3 / Fold change vs veh, ILF3 / RFU 11762660_at / Fold change /veh 11762660_at / RFU VCAN (11757783_s_at) / Fold change /veh VCAN (11757783_s_at) / RFU DDX43 (11728927_at) / Fold change /veh DDX43 (11728927_at) / RFU KRT8 (11758188_x_at) / Fold change /veh KRT8 (11758188_x_at) / RFU NKD1 (11759106_at) / Fold change /veh NKD1 (11759106_at) / RFU SRD5A1 (11742802_a_at) / Fold change /veh SRD5A1 (11742802_a_at) / RFU TPSAB1 /// TPSB2 (11721975_s_at) / Fold change /veh TPSAB1 /// TPSB2 (11721975_s_at) / RFU GSTM3 (11746129_a_at) / Fold change /veh GSTM3 (11746129_a_at) / RFU IL23R (11737362_x_at) / Fold change /veh IL23R (11737362_x_at) / RFU TMEM51 (11727254_a_at) / Fold change /veh TMEM51 (11727254_a_at) / RFU PIWIL2 (11732686_x_at) / Fold change /veh PIWIL2 (11732686_x_at) / RFU ORM1 (11744905_x_at) / Fold change /veh ORM1 (11744905_x_at) / RFU CCDC152 (11743942_at) / Fold change /veh CCDC152 (11743942_at) / RFU ECM1 (11717891_a_at) / Fold change /veh ECM1 (11717891_a_at) / RFU IL23R (11748794_a_at) / Fold change /veh IL23R (11748794_a_at) / RFU TNFAIP8L3 (11732012_x_at) / Fold change /veh TNFAIP8L3 (11732012_x_at) / RFU MBOAT4 (11741988_at) / Fold change /veh MBOAT4 (11741988_at) / RFU 11764193_at / Fold change /veh 11764193_at / RFU TMEM53 (11763286_at) / Fold change /veh TMEM53 (11763286_at) / RFU MAGEB2 (11727129_at) / Fold change /veh MAGEB2 (11727129_at) / RFU TMEM200A (11744735_a_at) / Fold change /veh TMEM200A (11744735_a_at) / RFU CCDC152 (11751479_a_at) / Fold change /veh CCDC152 (11751479_a_at) / RFU FAM211A (11726209_a_at) / Fold change /veh FAM211A (11726209_a_at) / RFU RGS16 (11746705_a_at) / Fold change /veh RGS16 (11746705_a_at) / RFU VCAN (11755009_s_at) / Fold change /veh VCAN (11755009_s_at) / RFU RHOB (11743442_s_at) / Fold change /veh RHOB (11743442_s_at) / RFU RGS16 (11720943_a_at) / Fold change /veh RGS16 (11720943_a_at) / RFU RGS16 (11720944_at) / Fold change /veh RGS16 (11720944_at) / RFU, VPS4B / Fold change vs veh, VPS4B / RFU, CREB1 / Fold change vs veh, CREB1 / RFU, DNAJC13 / Fold change vs veh, DNAJC13 / RFU, GNAQ / Fold change vs veh, GNAQ / RFU, CDK5R1 / Fold change vs veh, CDK5R1 / RFU, ZRANB3 / Fold change vs veh, ZRANB3 / RFU, CUL4A / Fold change vs veh, CUL4A / RFU, CCNY / Fold change vs veh, CCNY / RFU, UFL1 / Fold change vs veh, UFL1 / RFU, COG3 / Fold change vs veh, COG3 / RFU, DIAPH2 / Fold change vs veh, DIAPH2 / RFU, SKA2 / Fold change vs veh, SKA2 / RFU, AFF3 / Fold change vs veh, AFF3 / RFU, LMF1 / Fold change vs veh, LMF1 / RFU, IPO11 / Fold change vs veh, IPO11 / RFU, DFFB / Fold change vs veh, DFFB / RFU, FOXP1 / Fold change vs veh, FOXP1 / RFU, CARD8 / Fold change vs veh, CARD8 / RFU, STRN3 / Fold change vs veh, STRN3 / RFU, ADK / Fold change vs veh, ADK / RFU, RASSF2 / Fold change vs veh, RASSF2 / RFU, WIPF1 / Fold change vs veh, WIPF1 / RFU, LARP1B / Fold change vs veh, LARP1B / RFU, RASA1 / Fold change vs veh, RASA1 / RFU, RB1 / Fold change vs veh, RB1 / RFU, PPFIA1 / Fold change vs veh, PPFIA1 / RFU, MAT2A / Fold change vs veh, MAT2A / RFU, CCT5 / Fold change vs veh, CCT5 / RFU, WDR92 / Fold change vs veh, WDR92 / RFU, CUX1 / Fold change vs veh, CUX1 / RFU, TTC7A / Fold change vs veh, TTC7A / RFU, TMEM135 / Fold change vs veh, TMEM135 / RFU, DEPTOR / Fold change vs veh, DEPTOR / RFU, CPM / Fold change vs veh, CPM / RFU, DNAJB6 / Fold change vs veh, DNAJB6 / RFU, CACNA2D3 / Fold change vs veh, CACNA2D3 / RFU, DTX4 / Fold change vs veh, DTX4 / RFU, TFCP2 / Fold change vs veh, TFCP2 / RFU, GMCL1 /// GMCL1P1 / Fold change vs veh, GMCL1 /// GMCL1P1 / RFU, AEBP2 / Fold change vs veh, AEBP2 / RFU, SNHG1 /// SNORD22 /// SNORD25 /// SNORD26 /// SNORD27 /// SNORD28 /// SNORD29 /// SNORD31 / Fold change vs veh, SNHG1 /// SNORD22 /// SNORD25 /// SNORD26 /// SNORD27 /// SNORD28 /// SNORD29 /// SNORD31 / Fold change (Aza/veh), C12orf56 (ProbeSet 11735607_a_at) / Fold change (ACY-1035/veh), C12orf56 (ProbeSet 11735607_a_at) / Fold change (Aza/veh), FGFR1OP (ProbeSet 11751329_s_at) / Fold change (ACY-1035/veh), FGFR1OP (ProbeSet 11751329_s_at) / Fold change (Aza/veh), VPS36 (ProbeSet 11739960_a_at) / Fold change (ACY-1035/veh), VPS36 (ProbeSet 11739960_a_at) / RFU SYPL1 (11715823_x_at) / Fold change /veh SYPL1 (11715823_x_at) / RFU IGFBP7 (11715501_s_at) / Fold change /veh IGFBP7 (11715501_s_at) / RFU REEP3 (11722064_at) / Fold change /veh REEP3 (11722064_at) / RFU IGLL1 (11728026_x_at) / Fold change /veh IGLL1 (11728026_x_at): dose or concentration left out as unconfirmed
# Conditions: ProbeSet 11720566_at; LIST D
compound,measurement,value
Nc1ncn([C@@H]2O[C@H](CO)[C@@H](O)[C@H]2O)c(=O)n1 [azacitidine],"RFU, BCAT1",650.05 RFU
